In one data set the test system is A. baumannii (ATCC17978). In words: 50% growth inhibitory concentration (IC50) determination assay, A. baumannii. The note with it: Acinetobacter baumannii, ATCC17978; Iso-Sensitest broth, growth by OD 600 nm over 16 h; <0.098 = detection limit. Format: cell-based. As for the experimental part:
(§1) The in vitro antimicrobial activity of the compounds against S. aureus (ATCC29213), K. pneumoniae (ATCC10031), and A. baumannii (ATCC17978), was determined according to the following procedure: The assay used a 10-points Iso-Sensitest broth medium to measure quantitatively the in vitro activity of the compounds against S. aureus ATCC29213, K. pneumoniae ATCC 10031, and A. baumannii ATCC17978. Stock compounds in DMSO were serially two-fold diluted (range from 50 to 0.097 μM final concentration) in 384 wells microtiter plates and inoculated with 49 μL the bacterial suspension in Iso-Sensitest broth medium to have a final cell concentration of ˜5×10^5 CFU/mL in a final volume/well of 50 μL/well. Microtiter plates were incubated at 35±2° C. Bacterial cell growth was determined with the measurement of optical density at λ=600 nm each 20 minutes over a time course of 16 h.

The subject of data set [1] is multiple species and strains. The data set can be described thus: microbe, parasite or virus in culture. Further details: MIC S9 / MIC S7 / MIC S11 / MIC S8 / MIC S10: unit not given beside the values. The settings on record: for MIC S9: E. coli ATCC 35218. As for the experimental part: The MIC of antibacterial compounds against multiple species and strains was determined using the broth microdilution method according to M07-A10 Clinical and Laboratory Standards Institute (CLSI) guidelines (CLSI (2015) Methods for dilution antimicrobial susceptibility tests for bacteria that grow aerobically; Approved Standard, Tenth Edition. CLSI Document M7-A10 (ISBN 1-56238-987-4). Wayne, Pa.: Clinical and Laboratory Standards Institute, 19087, USA.). In short, bacterial strain preparation was performed on D1 and D2. […] 5-10 well-isolated colonies of similar morphology were selected and re-streaked onto fresh agar plates using sterile loops and incubated for 20-24 hr at 35±2° C. Bacterial strains were subcultured two times to ensure fresh inoculums for MIC screening. […] Alternatively, 1-2 colonies were transferred into 500 μL of saline and OD600 was adjusted to ˜0.1 using an OD meter. Bacterial inoculum was diluted by 1:280 for Gram-positive strains and 1:400 for Gram-negative strains into corresponding medium broth (CAMHB, CAMHB+3% lysed horse blood, HTM) (e.g. 35.6 μL of inoculum into 10 mL of CAMHB or 25 μL of inoculum into 10 mL of CAMHB). For compound plate, the compound stock solutions were prepared in 100% DMSO on the day of MIC screening and used immediately. Compound stock concentration=[(highest testing concentration)×100 μL/2 μL] (e.g. if the required highest testing concentration is 64 μg/mL in assay plates, stock concentration=64 μg/mL×100 μL/2 μL=3.2 mg/mL). […] 1 μL of each well was transferred in a new MTP, which served as the test plate by subsequent inoculation. The bacterial suspension prepared above is dispensed at 98 μL/well within 15 minutes after preparation. Negative controls (lack of bacterial cells) and growth control wells (lack of compound) were included in all plates. MTPs were incubated for 18-24 hours at 35±2° C. in ambient air. The MIC was recorded and CFUs were calculated on Day 4. The assay plate was placed on the top of MIC reader, and the magnification mirror was adjusted to read each wells, recording growth status as raw data. Photo images of each assay plates were recorded using Q Count 530 (Spiral Biotech). The MIC value of each compound, expressed as μg/mL, was determined as the lowest concentration required for complete growth inhibition (no visible growth).

The test system of a further data set is S. aureus (ATCC29213). The data set can be described thus: 50% growth inhibitory concentration (IC50) determination assay, S. aureus. The settings on record: Staphylococcus aureus, ATCC29213; Iso-Sensitest broth, growth by OD 600 nm over 16 h; <0.098 = detection limit. The class given is cell-based. As for the experimental part:
as §1

For data set [2], the system named is K. pneumoniae (ATCC10031). In words: 50% growth inhibitory concentration (IC50) determination assay, K. pneumoniae. The class given is cell-based. The note with it: Klebsiella pneumoniae, ATCC10031; Iso-Sensitest broth, growth by OD 600 nm over 16 h; <0.098 = detection limit. As for the experimental part:
as §1

Where [3] appears, read: Acinetobacter baumannii, ATCC19606, read-out: MIC S1, A. baumannii ATCC 19606.
[4] abbreviates: Acinetobacter baumannii, ATCC51432, read-out: MIC S2, A. baumannii ATCC 51432.
The mark [5] stands for this setting: Acinetobacter baumannii, ATCCBAA747, read-out: MIC S3, A. baumannii ATCC BAA-747.
The mark [6] stands for this setting: Escherichia coli, ATCC25922, read-out: MIC S11, E. coli ATCC 25922.
The mark [7] stands for this setting: Escherichia coli, ATCCBAA2340, read-out: MIC S10, E. coli ATCC BAA-2340.
Where [8] appears, read: Klebsiella pneumoniae, ATCC10031, read-out: MIC S4, K. pneumoniae ATCC 10031.
Where [9] appears, read: Klebsiella pneumoniae, ATCC700603, read-out: MIC S5, K. pneumoniae ATCC 700603.
The mark [10] stands for this setting: Klebsiella pneumoniae, ATCCBAA2146, read-out: MIC S6, K. pneumoniae ATCC BAA-2146.
[11] abbreviates: Pseudomonas aeruginosa, ATCC27853, read-out: MIC S7, P. aeruginosa ATCC 27853.
Where [12] appears, read: Pseudomonas aeruginosa, ATCCBAA2113, read-out: MIC S8, P. aeruginosa ATCC BAA-2113.

Each structure is given as a SMILES string. In brackets after ≈: the same amount, converted by molar mass. Like-named read-outs stand apart in the source and are kept apart here.

The text below walks through data of patent publication US20210238197A1, “NOVEL OXOQUINOLIZINE COMPOUNDS FOR THE TREATMENT AND PROPHYLAXIS OF BACTERIAL INFECTION” (Hoffmann-La Roche Inc., priority 2018, published 2021).

As a reminder, the IC50 is the concentration at which inhibition is half-maximal. With `CNc1cc(F)c(F)c2c1[nH]c1ncc(-c3ccc4c(C)cc(C(=O)O)c(=O)n4c3)c(N3CC[C@H]4CN(C)C[C@H]43)c12` (relative stereo) [Example 2.04, 7-[4-[cis-5-methyl-2,3,3a,4,6,6a-hexahydropyrrolo[2,3-c]pyrrol-1-yl]-5,6-difluoro-8-(methylamino)-9H-pyrido[2,3-b]indol-3-yl]-1-methyl-4-oxo-quinolizine-3-carboxylic acid], the IC50 (in the data set with A. baumannii (ATCC17978); in the data set with S. aureus (ATCC29213); in data set [2]) was less than 98 nM each time. The MIC was 0.461 µg/mL (≈ 0.825 µM) in data set [1] (setting [3]); 0.614 µg/mL (≈ 1.1 µM) in data set [1] (setting [4]); 0.922 µg/mL (≈ 1.65 µM) in data set [1] (setting [5]); 0.173 µg/mL (≈ 0.31 µM) in data set [1] (setting [6]); 0.922 µg/mL (≈ 1.65 µM) in data set [1] (setting [7]); 0.077 µg/mL (≈ 0.138 µM) in data set [1] (setting [8]). In addition, the MIC in data set [1] (setting [9]) is 4.92 µg/mL (≈ 8.8 µM); in data set [1] (setting [10]), 4.92 µg/mL (≈ 8.8 µM); in data set [1] (setting [11]), 2.46 µg/mL (≈ 4.4 µM); in data set [1] (setting [12]), 3.69 µg/mL (≈ 6.6 µM). Further, the “MIC S9” value in data set [1] amounted to 0.614.
As to `CNc1cc(F)c(F)c2c1[nH]c1ncc(-c3ccc4c(C5CC5)cc(C(=O)O)c(=O)n4c3)c(N3CC[C@H]4CN(C)C[C@H]43)c12` (relative stereo) [Example 2.05, 7-[4-[cis-5-methyl-2,3,3a,4,6,6a-hexahydropyrrolo[2,3-c]pyrrol-1-yl]-5,6-difluoro-8-(methylamino)-9H-pyrido[2,3-b]indol-3-yl]-1-cyclopropyl-4-oxo-quinolizine-3-carboxylic acid], the IC50 (in the data set with A. baumannii (ATCC17978); in the data set with S. aureus (ATCC29213); in data set [2]) was less than 98 nM each time.
As for `CNc1cc(F)c(F)c2c1[nH]c1ncc(-c3ccc4ccc(C(=O)O)c(=O)n4c3)c(N3CC4C(N(C)C)CO[C@@H]4C3)c12` (stereo partly drawn) [Example 1.06, 7-[4-[cis-3-(dimethylamino)-2,3,3a,4,6,6a-hexahydrofuro[2,3-c]pyrrol-5-yl]-5,6-difluoro-8-(methylamino)-9H-pyrido[2,3-b]indol-3-yl]-4-oxo-quinolizine-3-carboxylic acid], the IC50 in the data set with A. baumannii (ATCC17978) is less than 98 nM; in the data set on S. aureus (ATCC29213), 137 nM; in data set [2], less than 98 nM.
In the case of `CNc1cc(F)c(F)c2c1[nH]c1ncc(-c3ccc4ccc(C(=O)O)c(=O)n4c3)c(N3CC4[C@H](CC[C@@H]4N(C)C)C3)c12` (stereo partly drawn) [Example 1.09, 7-[4-[cis-(4S)-4-(dimethylamino)-3,3a,4,5,6,6a-hexahydro-1H-cyclopenta[c]pyrrol-2-yl]-5,6-difluoro-8-(methylamino)-9H-pyrido[2,3-b]indol-3-yl]-4-oxo-quinolizine-3-carboxylic acid], the IC50 (with A. baumannii (ATCC17978); in the data set with S. aureus (ATCC29213); in data set [2]) was less than 98 nM each time.
Take `CNc1cc(F)c(F)c2c1[nH]c1ncc(-c3ccc4ccc(C(=O)O)c(=O)n4c3)c(N3C[C@@H]4[C@H](C3)[C@H]4N(C)C)c12` [Example 1.13, 7-(4-((1R,5S,6S)-6-(dimethylamino)-3-azabicyclo[3.1.0]hexan-3-yl)-5,6-difluoro-8-(methylamino)-9H-pyrido[2,3-b]indol-3-yl)-4-oxo-4H-quinolizine-3-carboxylic acid]: the IC50 (in the data set on A. baumannii (ATCC17978); in the data set with S. aureus (ATCC29213); in data set [2]) was less than 98 nM in each case.
Consider `CNc1cc(F)c(C#N)c2c1[nH]c1ncc(-c3ccc4ccc(C(=O)O)c(=O)n4c3)c(N(C)C)c12` [Example 1.18, 7-[5-cyano-4-(dimethylamino)-6-fluoro-8-(methylamino)-9H-pyrido[2,3-b]indol-3-yl]-4-oxo-quinolizine-3-carboxylic acid], for which the MIC in data set [1] (setting [3]) was found to be 0.092 µg/mL (≈ 0.196 µM); in data set [1] (setting [4]), 0.367 µg/mL (≈ 0.78 µM); in data set [1] (setting [5]) it was 0.184 µg/mL (≈ 0.391 µM); in data set [1] (setting [6]), 0.551 µg/mL (≈ 1.17 µM); in data set [1] (setting [7]), 0.046 µg/mL (≈ 0.0978 µM); in data set [1] (setting [8]), 0.046 µg/mL (≈ 0.0978 µM). Further, the MIC in data set [1] (setting [9]) came to 0.092 µg/mL (≈ 0.196 µM); in data set [1] (setting [10]), 0.735 µg/mL (≈ 1.56 µM); in data set [1] (setting [11]), 0.367 µg/mL (≈ 0.78 µM); in data set [1] (setting [12]), 0.184 µg/mL (≈ 0.391 µM). Also, the “MIC S9” value in data set [1] came to 0.046.
Regarding `CNc1cc(F)c(F)c2c1[nH]c1ncc(-c3cc(C)c4ccc(C(=O)O)c(=O)n4c3)c(N(C)C)c12` [Example 1.20, 7-[4-(dimethylamino)-5,6-difluoro-8-(methylamino)-9H-pyrido[2,3-b]indol-3-yl]-9-methyl-4-oxo-quinolizine-3-carboxylic acid], the MIC in data set [1] (setting [3]) was 0.187 µg/mL (≈ 0.392 µM); in data set [1] (setting [4]) it was 1.49 µg/mL (≈ 3.12 µM); in data set [1] (setting [5]), 0.746 µg/mL (≈ 1.56 µM); in data set [1] (setting [6]), 0.42 µg/mL (≈ 0.88 µM); in data set [1] (setting [7]), 0.559 µg/mL (≈ 1.17 µM); in data set [1] (setting [8]), 0.187 µg/mL (≈ 0.392 µM). Moreover, the MIC in data set [1] (setting [9]) was 1.49 µg/mL (≈ 3.12 µM); in data set [1] (setting [10]), 2.98 µg/mL (≈ 6.25 µM); in data set [1] (setting [11]), 2.98 µg/mL (≈ 6.25 µM); in data set [1] (setting [12]), 2.24 µg/mL (≈ 4.69 µM). Moreover, the “MIC S9” value in data set [1] came to 0.559.
Take `CNc1cc(F)c(F)c2c1[nH]c1ncc(-c3ccc4ccc(C(=O)O)c(=O)n4c3)c(N3CCC(C4(N)CC4)C3)c12` (centres unmarked) [Example 1.21, 7-[4-[3-(1-aminocyclopropyl)pyrrolidin-1-yl]-5,6-difluoro-8-(methylamino)-9H-pyrido[2,3-b]indol-3-yl]-4-oxo-quinolizine-3-carboxylic acid]: the MIC in data set [1] (setting [3]) was 0.603 µg/mL (≈ 1.11 µM); in data set [1] (setting [4]) it was 1.21 µg/mL (≈ 2.22 µM); in data set [1] (setting [5]), 1.21 µg/mL (≈ 2.22 µM); in data set [1] (setting [6]), 0.34 µg/mL (≈ 0.624 µM); in data set [1] (setting [7]), 0.302 µg/mL (≈ 0.555 µM); in data set [1] (setting [8]) it was 0.038 µg/mL (≈ 0.0698 µM). Also, the MIC in data set [1] (setting [9]) turned out to be 4.83 µg/mL (≈ 8.87 µM); in data set [1] (setting [10]) it was 4.83 µg/mL (≈ 8.87 µM); in data set [1] (setting [11]) it was 1.21 µg/mL (≈ 2.22 µM); in data set [1] (setting [12]), 2.41 µg/mL (≈ 4.43 µM). Also, the “MIC S9” value in data set [1] turned out to be 0.603.
As to `CNc1cc(F)c(F)c2c1[nH]c1ncc(-c3ccc4ccc(C(=O)O)c(=O)n4c3)c(N3C[C@@H]4CCN(C)[C@@H]4C3)c12` [Example 3.03B, 7-[4-[(3aS,6aS)-1-methyl-2,3,3a,4,6,6a-hexahydropyrrolo[3,4-b]pyrrol-5-yl]-5,6-difluoro-8-(methylamino)-9H-pyrido[2,3-b]indol-3-yl]-4-oxo-quinolizine-3-carboxylic acid], the IC50 (with A. baumannii (ATCC17978); in the data set on S. aureus (ATCC29213); in data set [2]) was less than 98 nM each time.
